Measured values reported in publication PMC5159558 (Nucleic Acids Research, 2016).

How the values were obtained:
RET1ΔNC = molecular target: T1, RET1ΔNC (Trypanosoma brucei, UniProt Q8WQX5); assay: X-ray crystal structure, […] Å; assay type: binding; conditions: 0.5 mM UMPnPP, 1 mM MgCl2; active site; non-hydrolysable UTP analogue
T1 sequence (Q8WQX5 189-699): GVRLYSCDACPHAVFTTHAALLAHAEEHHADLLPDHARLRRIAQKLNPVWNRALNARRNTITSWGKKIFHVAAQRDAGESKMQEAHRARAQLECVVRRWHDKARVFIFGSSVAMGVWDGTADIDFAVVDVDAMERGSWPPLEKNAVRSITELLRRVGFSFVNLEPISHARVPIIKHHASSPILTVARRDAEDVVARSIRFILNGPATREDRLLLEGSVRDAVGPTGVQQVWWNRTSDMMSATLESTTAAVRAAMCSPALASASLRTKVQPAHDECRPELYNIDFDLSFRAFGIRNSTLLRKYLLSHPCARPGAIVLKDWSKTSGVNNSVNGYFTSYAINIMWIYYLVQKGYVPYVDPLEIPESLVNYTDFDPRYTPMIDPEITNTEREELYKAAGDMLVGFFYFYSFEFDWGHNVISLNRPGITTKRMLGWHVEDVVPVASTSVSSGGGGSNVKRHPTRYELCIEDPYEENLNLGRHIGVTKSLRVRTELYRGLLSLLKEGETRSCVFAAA

TUT4 = molecular target: T2, TUT4 (Trypanosoma brucei, UniProt Q381M1); assay: X-ray crystal structure, […] Å; assay type: binding; conditions: Mg2+
T2 sequence (Q381M1 1-333): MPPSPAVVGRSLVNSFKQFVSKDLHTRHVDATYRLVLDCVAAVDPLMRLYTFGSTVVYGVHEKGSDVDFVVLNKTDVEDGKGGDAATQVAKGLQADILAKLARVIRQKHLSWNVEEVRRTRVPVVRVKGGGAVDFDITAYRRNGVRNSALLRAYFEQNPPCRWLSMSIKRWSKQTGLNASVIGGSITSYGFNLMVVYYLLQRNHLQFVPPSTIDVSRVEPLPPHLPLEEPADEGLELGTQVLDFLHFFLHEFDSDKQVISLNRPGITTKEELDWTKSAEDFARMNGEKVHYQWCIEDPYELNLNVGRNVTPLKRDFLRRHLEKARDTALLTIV

SMILES: O=c1ccn([C@@H]2O[C@H](COP(=O)(O)NP(=O)(O)OP(=O)(O)O)[C@@H](O)[C@H]2O)c(=O)[nH]1 [UMPnPP]
- X-ray crystal structure, 1.8 Å (soaked crystals) (RET1ΔNC): Crystals of RET1ΔNC in complex with the UTP analog UMPNPP were obtained by soaking

SMILES: O=c1ccn([C@@H]2O[C@H](COP(=O)(O)OP(=O)(O)OP(=O)(O)O)[C@@H](O)[C@H]2O)c(=O)[nH]1 [UTP]
- X-ray crystal structure, 2.75 Å (TUT4; ternary complex with UpU, co-crystallised with UTP): structure of TUT4 from T. brucei with bound UTP and RNA-mimicking dinucleotide UpU

SMILES: O=c1ccn([C@@H]2O[C@H](COP(=O)(O)O[C@H]3[C@@H](O)[C@H](n4ccc(=O)[nH]c4=O)O[C@@H]3CO)[C@@H](O)[C@H]2O)c(=O)[nH]1 [UpU]
- X-ray crystal structure, 2.75 Å (TUT4; ternary complex with UTP, crystals soaked in 1 mM UpU): structure of TUT4 from T. brucei with bound UTP and RNA-mimicking dinucleotide UpU
